According to patent publication US20230304064A1, “AUTOMATED, DIGITAL DISPENSING PLATFORM FOR MICRODILUTION ANTIMICROBIAL SUSCEPTIBILITY TESTING” (priority 2016, published 2023):
Where two headings read alike, the source gives them in different places.

What was measured:
[1] = test system: carbapenem-resistant Escherichia coli clinical isolates (blaKPC); test: DDM (digital dispensing method) MIC testing of CRE isolates; format: cell-based; conditions: Escherichia coli, read-out: DDM modal MICs
Description: (§1) Bacterial strains: The 10 de-identified CRE clinical isolates used in the study were collected at our institution under Institutional Review Board-approved protocols and were sequenced through the carbapenem-resistant Enterobacteriaceae genome initiative at the Broad Institute (Cambridge, MA). All contained a Klebsiella pneumoniae carbapenemase (blaKPC) gene and were colony-purified, minimally passaged, and stored at -80° C. prior to use in this study.
(§2) After incubation, bacterial growth was quantified by measurement of OD600 using an Epoch (BioTek, Winooski, VT) or Spark 10 M microplate reader (Tecan, Morrisville, NC). An OD600 reading of 0.08 or greater (approximately twice typical background readings in wells containing broth alone) was considered indicative of bacterial growth (as also appreciable by visual assessment).
(§3) Precision and accuracy. […] Modal DDM MICs were calculated by taking the mode of all DDM MIC measurements obtained for a given antibiotic-strain combination, inclusive of initial MIC titrations and single-antibiotic rows/columns in synergy arrays (Table 5).

[2] = test system: carbapenem-resistant Klebsiella pneumoniae clinical isolates (blaKPC); test: as above; format: cell-based; conditions: for MIC: Klebsiella pneumoniae, read-out: DDM modal MICs
Description: as §1, §2, §3

[3] = test system: 4 bacterial screening strains (BIDMC 4, BIDMC 5, BIDMC 12A, and BIDMC 15); test: Checkerboard synergy testing screen (FICI-MIN); format: cell-based, Klebsiella pneumoniae; Escherichia coli; conditions: range over strains; read-out: MICs of the strains
E. coli ATCC 25922 = test: Microscopy-based AST (MAST): cell morphology at the MIC; conditions: MAST, 2-hour incubation
Description: Briefly, antibiotics are added to solidified microwell surfaces which are subsequently inoculated with 200 nL of a standardized bacterial suspension. Both antibiotic and bacterial cell dispensing are performed using the HP D300 system. Following incubation at 35±2° C., plates are imaged on a Zeiss Cell Observer microscope operating in brightfield mode with a 40X long working distance objective. The microscope is equipped with an automated stage. […] The z-position of the poloxamer surface in the first well is set manually after which the software directs the stage to each subsequent well, collecting a z-series (20 slices at 2 µM per slice with the center of the z-series defined by the microscope’s autofocus feature) with no further operator intervention. Z-series are collapsed using the Extended Depth of Focus feature in the Zeiss Zen Blue software and saved as individual images.
Microscopy-based AST (MAST). […] Two-hundred nL of bacteria in NaCl-P20 suspended at a density of 0.1 McFarland were then delivered to the center of each well by digital dispensing. Immediately after inoculation, plates were incubated at 35±2° C. for 2 hours, and held at room temperature for 2 hours during transport and imaging.
Plates were imaged with a Zeiss Cell Observer microscope with settings described in the “quantification of bacterial dispensing” section. […]

[4] = test system: 14 Enterobacteriaceae strains presumptively expressing extended spectrum beta-lactamase enzymes; test: Inoculum effect by digitally dispensed checkerboard of bacteria and antibiotic; format: cell-based; conditions: inkjet printing method, inoculum above/below CLSI-recommended
From the text: Inoculum effect experiments comprise a series of broth microdilution experiments in which the cell density of the bacterial inoculum is varied (often 10-fold) across multiple identical doubling dilutions of antibiotics. The MICs are then interpreted at each inoculum concentration.
There is currently no practical way to test for an inoculum effect within the workflow of a clinical laboratory, as such testing would require a highly laborious manual process of testing different inoculum levels with several potential antimicrobials. […] By varying the droplet size during digital printing of a bacterial suspension as described in the preceding section, a desired inoculum of bacteria can be added to each testing well. More specifically, doubling dilutions of bacterial inocula can be performed if desired, thereby establishing the relationship between inoculum and MIC through an inoculum dose-response curve.
We investigated the inoculum effect for cefepime (a fourth generation cephalosporin) on 14 Enterobacteriaceae strains presumptively expressing extended spectrum beta-lactamase enzymes based on third generation cephalosporin resistance. Bacteria and antibiotics were both dispensed as orthogonal, combinatorial two-fold dilution series using our digital dispensing method to create a checkerboard array. […]

[5] = test system: KPC-producing CRE K. pneumoniae strains; test: Checkerboard synergy, spectrum of activity evaluation; format: cell-based, Klebsiella pneumoniae; conditions: strain BIDMC 18A
Description: Spectrum of activity evaluation. […] Each selected combination was tested in duplicate on separate days against the 10 clinical KPC-producing CRE strains (5 K. pneumoniae and 5 E. coli) listed in Table 5, including the original 4 used in the synergy testing screen.

E. cloacae ATCC 13047 = test: MIC testing by broth microdilution and D300 digital dispensing (precision study); format: cell-based, Enterobacter cloacae; conditions: EUCAST criteria
[6] = test system: eighty de-identified Enterobacteriaceae clinical isolates; test: organism not typed; format: cell-based; conditions: eighty clinical isolates; reference microdilution; CLSI criteria, EUCAST for colistin
Description: K. pneumonia BIDMC12A is a previously described, carbapenem resistant clinical isolate (14) expressing a KPC-3 carbapenemase. The eighty de-identified Enterobacteriaceae clinical isolates (Table 1) used for verification studies were collected at our institution under IRB-approved protocols. All strains were minimally passaged and stored at -80° C. prior to use in this study.
Verification study: Digital dispensing and reference method testing were performed in parallel using the same inoculum preparation. Microdilution reference panels were pre-prepared and stored at -80° C. until use (less than 2 weeks). D300 test method panels were prepared fresh each day of use.
Accuracy was evaluated using established guidelines (16, 17). The MIC determined by the digital dispensing method was compared with the MIC determined by the broth microdilution reference method. Essential agreement, overall essential agreement, and categorical agreement were evaluated as described in the precision study.

P. mirabilis ATCC 702 = test: MIC testing by broth microdilution and D300 digital dispensing (precision study); conditions: precision study, EUCAST criteria
Description: Broth microdilution testing: Broth microdilution was performed using the colony suspension method according to CLSI guidelines (13). Colistin testing was consistent with the joint CLSI-EUCAST (European Committee on Antimicrobial Susceptibility Testing) Polymyxin Breakpoints Working Group guidelines (15). Serial two-fold dilutions of antimicrobials at double concentration were made in 96-well plates (Evergreen Scientific, Los Angeles, CA) using cation adjusted Mueller-Hinton broth (BD Diagnostics, Franklin Lakes, NJ) in a 50 µl volume. […] MIC was defined as the lowest concentration of antimicrobial resulting in complete inhibition of growth as determined visually.
Bacterial suspensions were prepared as for broth microdilution and adjusted directly to the final inoculum concentration of 5 × 10^5 CFU ml^-1 in a 50 µl total assay volume. […] Cell growth was quantified by measurement of optical density at 600 nm (OD600) with an Epoch microplate reader (BioTek, Winooski, VT). A custom python script was used to classify wells with OD600 ≧ 0.08 (approximately two-fold above typical background readings) as having bacterial growth. […]
Precision analysis: A precision analysis was conducted according to established guidelines (16, 17). […] The modal MIC for both methods was determined using MIC values for on-scale measurements. Log2 difference of each measurement from the mode was recorded.

[7] = test system: carbapenem-resistant Enterobacteriaceae; conditions: cited from earlier work

Compound	MIC ([1]; BIDMC 6, ECO, KPC type 2) [µg/mL]	MIC ([1]; BIDMC 9, ECO, KPC type 2) [µg/mL]	MIC ([1]; BIDMC 15, ECO, KPC type 2) [µg/mL]	MIC ([1]; BIDMC 17A, ECO, KPC type 2) [µg/mL]	MIC ([1]; BIDMC 20A, ECO, KPC type 3) [µg/mL]	MIC ([2]; BIDMC 4, KPN, KPC type 3) [µg/mL]	MIC ([2]; BIDMC 5, KPN, KPC type 3) [µg/mL]	MIC ([2]; BIDMC 10, KPN, KPC type 3) [µg/mL]	MIC ([2]; BIDMC 12A, KPN, KPC type 3) [µg/mL]	MIC ([2]; BIDMC 18A, KPN, KPC type 2) [µg/mL]	MIC [3] [µg/mL]	cell morphology at the MIC (E. coli ATCC 25922)	inoculum effect [4]	MIC [5] [µg/mL]	categorical susceptibility result (E. cloacae ATCC 13047)	DDM modal MICs ([2]; BIDMC 5, KPN, KPC type 3) [mg/L]	Non-susceptible strains (%) [6] [%]	Non-susceptible strains n [6]	categorical susceptibility result (P. mirabilis ATCC 702)	share of carbapenem-resistant Enterobacteriaceae against which the drug is effective [7] [%]
C[C@@H](O)[C@H]1C(=O)N2C(C(=O)O)=C(S[C@@H]3CN[C@H](C(=O)Nc4cccc(C(=O)O)c4)C3)[C@H](C)[C@H]12 [ETP, ertapenem]	8	8	32	8	4	32	16	16	32	64	8 to 64									
CO/N=C(\C(=O)N[C@@H]1C(=O)N2C(C(=O)[O-])=C(C[N+]3(C)CCCC3)CS[C@H]12)c1csc(N)n1 [FEP, cefepime]	8	32	4	4	8	64	16	16	16			filamented bacteria with a pronounced central bulge	pronounced							
Colistin [Colistin (CL)]														> 128	resistance	0.5	21.5	17	resistance	> 85
